Reference: patent publication US10577332B2, “Tetrazole derivatives” (Hoffmann-La Roche Inc., priority 2015, dated 2020)

Legend:
human EAAT3 = molecular target: T1, human EAAT3 (Homo sapiens, UniProt P43005); experiment: FLIPR Membrane Potential (FMP) assay; type: cell-based; conditions: HEK-293 cells stably expressing human EAAT3; antagonist applied 15 min before L-glutamate at EC80; Kb by Cheng-Prusoff from IC50
T1 construct: expressed in transfected cells
T1 sequence (P43005 1-524): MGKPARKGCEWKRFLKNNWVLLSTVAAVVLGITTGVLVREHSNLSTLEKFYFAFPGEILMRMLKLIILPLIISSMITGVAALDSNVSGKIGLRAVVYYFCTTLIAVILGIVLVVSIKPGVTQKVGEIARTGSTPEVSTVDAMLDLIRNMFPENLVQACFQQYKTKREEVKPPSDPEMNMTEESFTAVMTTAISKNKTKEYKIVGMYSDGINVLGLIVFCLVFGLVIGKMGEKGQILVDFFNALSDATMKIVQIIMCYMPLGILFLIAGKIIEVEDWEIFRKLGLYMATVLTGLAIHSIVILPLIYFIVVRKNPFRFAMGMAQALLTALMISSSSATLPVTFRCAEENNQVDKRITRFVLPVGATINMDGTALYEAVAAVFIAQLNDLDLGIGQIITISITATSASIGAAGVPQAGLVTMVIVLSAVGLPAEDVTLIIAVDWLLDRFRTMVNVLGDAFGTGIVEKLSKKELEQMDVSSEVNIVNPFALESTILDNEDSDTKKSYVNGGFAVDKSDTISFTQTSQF
In short: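 HEK-293 cells stably expressing human EAAT3, loaded with membrane-potential dye 1 h at 37 °C in Krebs buffer pH 7.4. Antagonists added 15 min before L-glutamate at EC80; peak fluorescence minus basal read on FLIPR at room temperature. Kb derived from IC50 via Cheng-Prusoff.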

Structure (SMILES) | Kb (human EAAT3) [nM] | melting point [°C]
Cc1ccc(-c2cc(C(=O)NC(C)(C)C3CC3)cc(-n3nnnc3C(C)C)c2)cc1 [Example 20, N-(2-Cyclopropylpropan-2-yl)-3-(4-methylphenyl)-5-(5-propan-2-yltetrazol-1-yl)-benzamide] | 310 | 78
Cc1cc(-c2cc(C(=O)NC(C)(C)C)cc(-n3nnnc3C(C)(C)C)c2)ccc1F [Example 103, N-tert-Butyl-3-(5-tert-butyltetrazol-1-yl)-5-(4-fluoro-3-methylphenyl)-benzamide] | 260 | 190.5
Cc1ccc(-c2cc(C(=O)NC(C)(C)C)cc(-n3nnnc3C3CC3)c2)cc1 [Example 29, N-tert-Butyl-3-(5-cyclopropyltetrazol-1-yl)-5-(4-methylphenyl)-benzamide] | 200 | 91
CC(C)(C#N)NC(=O)c1cc(-c2ccc(F)cc2)cc(-n2nnnc2C(C)(C)C)c1 [Example 100, 3-(5-tert-Butyltetrazol-1-yl)-N-(2-cyanopropan-2-yl)-5-(4-fluorophenyl)-benzamide] | 230 | 115
Cc1ccc(-c2cc(C(=O)NC(C)(C)C(F)(F)F)cc(-n3nnnc3C(C)C)c2)cc1 [Example 19, 3-(4-Methylphenyl)-5-(5-propan-2-yltetrazol-1-yl)-N-(1,1,1-trifluoro-2-methylpropan-2-yl)-benzamide] | 230 | 79
CCc1nnnn1-c1cc(C(=O)NC(C)(C)C)cc(-c2ccc(C)cc2)c1 [Example 30, N-tert-Butyl-3-(5-ethyltetrazol-1-yl)-5-(4-methylphenyl)-benzamide] | 210 | 73
CCc1nnnn1-c1cc(C(=O)NC(C)(C)CC)cc(-c2ccc(C)cc2)c1 [Example 28, 3-(5-Ethyltetrazol-1-yl)-N-(2-methylbutan-2-yl)-5-(4-methylphenyl)-benzamide] | 140 | 71.5
CC(C)(NC(=O)c1cc(-c2ccc(F)cc2)cc(-n2nnnc2C2CC2)c1)C1CC1 [Example 72, N-(2-Cyclopropylpropan-2-yl)-3-(5-cyclopropyltetrazol-1-yl)-5-(4-fluorophenyl)-benzamide] | 380 | 73
CC(C)(NC(=O)c1cc(-c2ccc(F)cc2)cc(-n2nnnc2C2CC2)c1)C(F)(F)F [Example 73, 3-(5-Cyclopropyltetrazol-1-yl)-5-(4-fluorophenyl)-N-(1,1,1-trifluoro-2-methylpropan-2-yl)-benzamide] | 110 | 81
Cc1ccc(-c2cc(C(=O)NC(C)(C)C)cc(-n3nnnc3C(C)(C)C)c2)cc1 [Example 102, N-tert-Butyl-3-(5-tert-butyltetrazol-1-yl)-5-(4-methylphenyl)-benzamide] | 120 | 222
CCC(C)(C)NC(=O)c1cc(-c2ccc(C)c(F)c2)cc(-n2cnnn2)c1 [Example 5, 3-(3-Fluoro-4-methylphenyl)-N-(2-methylbutan-2-yl)-5-(tetrazol-1-yl)-benzamide] | 250 | 161
CC1(NC(=O)c2cc(-c3ccc(Cl)cc3)cc(-n3nnnc3C(C)(C)C)c2)CCS(=O)(=O)C1 (racemic) [Example 89, (RS)-3-(5-tert-Butyltetrazol-1-yl)-5-(4-chlorophenyl)-N-(3-methyl-, 1-dioxothiolan-3-yl)benzamide] | 250 | 187
CC(C)(NC(=O)c1cc(-c2ccc(Cl)cc2)cc(-n2nnnc2C2CC2)c1)C(F)(F)F [Example 54, 3-(4-Chlorophenyl)-5-(5-cyclopropyltetrazol-1-yl)-N-(1,1,1-trifluoro-2-methylpropan-2-yl)-benzamide] | 210 | 91.5
Cc1nnnn1-c1cc(C(=O)NC(C)(C)C(F)(F)F)cc(-c2ccc(F)cc2)c1 [Example 86, 3-(4-Fluorophenyl)-5-(5-methyltetrazol-1-yl)-N-(1,1,1-trifluoro-2-methylpropan-2-yl)-benzamide] | 200 | 86
Cc1nnnn1-c1cc(C(=O)NC(C)(C)CO)cc(-c2ccc(Cl)cc2)c1 [Example 64, 3-(4-Chlorophenyl)-N-(1-hydroxy-2-methylpropan-2-yl)-5-(5-methyl-tetrazol-1-yl)-benzamide] | 420 | 193
CC(C)(C)NC(=O)c1cc(-c2ccc(F)cc2)cc(-n2nnnc2C2CC2)c1 [Example 69, N-tert-Butyl-3-(5-cyclopropyltetrazol-1-yl)-5-(4-fluorophenyl)-benzamide] | 150 | 82

Structure (SMILES) | Kb (human EAAT3) [nM] | melting point [°C]
Cc1ccc(-c2cc(C(=O)NC(C)(C)C)cc(-n3nnnc3C)c2)cc1 [Example 23, N-tert-Butyl-3-(4-methylphenyl)-5-(5-methyltetrazol-1-yl)-benzamide] | 290 | 85
CCC(C)(C)NC(=O)c1cc(-c2ccc(C(F)(F)F)cc2)cc(-n2cnnn2)c1 [Example 2, N-(2-Methylbutan-2-yl)-3-(tetrazol-1-yl)-5-[4-(trifluoromethyl)phenyl]-benzamide] | 220 | 168
CC(C)(C)c1nnnn1-c1cc(C(=O)NC(C)(C)C(F)(F)F)cc(-c2ccc(Cl)c(F)c2)c1 [Example 119, 3-(5-tert-Butyltetrazol-1-yl)-5-(4-chloro-3-fluorophenyl)-N-(1,1,1-trifluoro-2-methylpropan-2-yl)-benzamide] | 350 | 222
CC(C)(NC(=O)c1cc(-c2ccc(Cl)cc2)cc(-n2cnnn2)c1)C(F)(F)F [Example 41, 3-(4-Chlorophenyl)-5-(tetrazol-1-yl)-N-(1,1,1-trifluoro-2-methylpropan-2-yl)-benzamide] | 350 | 187
CC(C)(C#N)NC(=O)c1cc(-c2ccc(F)c(F)c2)cc(-n2nnnc2C(C)(C)C)c1 [Example 123, 3-(5-tert-Butyltetrazol-1-yl)-N-(2-cyanopropan-2-yl)-5-(3,4-difluorophenyl)-benzamide] | 220 | 263.5
CC(C)(C)c1nnnn1-c1cc(C(=O)NC(C)(C)C2CC2)cc(-c2ccc(C3CC3)cc2)c1 [Example 114, 3-(5-tert-Butyltetrazol-1-yl)-5-(4-cyclopropylphenyl)-N-(2-cyclopropylpropan-2-yl)-benzamide] | 620 | 95
CC(C)(C)NC(=O)c1cc(-c2ccc(F)cc2)cc(-n2nnnc2C(C)(C)C)c1 [Example 98, N-tert-Butyl-3-(5-tert-butyltetrazol-1-yl)-5-(4-fluorophenyl)-benzamide] | 100 | 223.5
CC(C)(C)c1nnnn1-c1cc(C(=O)NC(C)(C)C2CC2)cc(-c2ccc(C(F)(F)F)cc2)c1 [Example 111, 3-(5-tert-Butyltetrazol-1-yl)-N-(2-cyclopropylpropan-2-yl)-5-[4-(trifluoromethyl)-phenyl]-benzamide] | 500 | 95.5
CCC(C)(C)NC(=O)c1cc(-c2ccc(C)cc2)cc(-n2nnnc2C(C)C)c1 [Example 10, N-(2-Methylbutan-2-yl)-3-(4-methylphenyl)-5-(5-propan-2-yltetrazol-1-yl)-benzamide] | 230 | 104
CC(C)c1nnnn1-c1cc(C(=O)NC(C)(C)C2CC2)cc(-c2ccc(F)cc2)c1 [Example 82, N-(2-Cyclopropylpropan-2-yl)-3-(4-fluorophenyl)-5-(5-propan-2-yltetrazol-1-yl)-benzamide] | 160 | 75
Cc1ccc(-c2cc(C(=O)NC3(C)CCS(=O)(=O)C3)cc(-n3nnnc3C(C)C)c2)cc1 (racemic) [Example 17, (RS)-N-(3-methyl-1,1-dioxothiolan-3-yl)-3-(4-methylphenyl)-5-(5-propan-2-yltetrazol-1-yl)-benzamide] | 250 | 112
CCC(C)(C)NC(=O)c1cc(-c2ccc(Cl)c(Cl)c2)cc(-n2cnnn2)c1 [Example 38, 3-(3,4-Dichlorophenyl)-N-(2-methylbutan-2-yl)-5-(tetrazol-1-yl)-benzamide] | 700 | 206
Cc1nnnn1-c1cc(C(=O)NC(C)(C)C2CC2)cc(-c2ccc(F)cc2)c1 [Example 85, N-(2-Cyclopropylpropan-2-yl)-3-(4-fluorophenyl)-5-(5-methyltetrazol-1-yl)-benzamide] | 290 | 78
CC(C)(C)c1nnnn1-c1cc(C(=O)NC(C)(C)C(F)(F)F)cc(-c2ccc(Cl)cc2)c1 [Example 93, 3-(5-tert-Butyltetrazol-1-yl)-5-(4-chlorophenyl)-N-(1,1,1-trifluoro-2-methylpropan-2-yl)-benzamide] | 260 | 218.5
CC(C)c1nnnn1-c1cc(C(=O)NC(C)(C)C2CC2)cc(-c2ccc(Cl)cc2)c1 [Example 44, 3-(4-Chlorophenyl)-N-(2-cyclopropylpropan-2-yl)-5-(5-propan-2-yltetrazol-1-yl)-benzamide] | 210 | 83
